Test results published in patent US10195311B2, “Local delivery of drugs from self assembled coatings” (Interface Biologics, Inc., priority 2009, dated 2019).

Columns and labels:
Format in all cases: physicochemical
[1] = Oligofluoro as solubilizing agent, drug release from coated nylon films in water; settings: drug at 4 wt %, nylon film, water 24 hours
Procedure: Coating was made on nylon film by drop casting method. Control films with drug coated only was also prepared in a same manner. Coated nylon films were incubated in water for 24 hours to measure drug release.

[2] = Drug shielding effect on Nylon 12 film, PTX release in PBS; settings: PBS pH 7.4, 37° C.
Procedure: (§1) Compounds 1, 7, and 14 (200 mg/mL) were dissolved in THF. PTX was added to each solution to make a 25 mg/mL solution. Nylon 12 film sheets were cut 1×1 cm size, blend solution was drop cast on the film sheet, dried in a 50° C. flow oven for 1 day. PTX alone was prepared the same way and used as the control. PBS pH 7.4 was pre-warmed to 37° C. Test articles and control articles were incubated in media (4 mL) at 37° C. for 10, 30, 60 and 120 minutes. At the end of each time point, media was exchanged and at the end of the study, the films were stripped with organic solvent, centrifuged, the supernatant collected, and solvent dried overnight at 60° C. The assessment of the drug shielding effect was analyzed by RP-HPLC with benzonitrile as the internal standard. 10 minute PTX release in PBS (ng/mL): Compound 1: 107.6, Compound 7: 79.7, Compound 14: 15.4, PTX alone: 651. The assessment of oligofluoro adhesion on film surface was done by NMR. A calibration curve for each compound was generated by NMR. Stripped coating was re-suspended in CDCl3 (1 mL) and NMR was performed. Quantity of remaining material was back calculated from NMR integration area. Percent remaining material after 120 minute incubation in PBS: Compound 1: 82.1, Compound 7: 85.5. Similar assessment of drug shielding on films was done with porcine whole blood. […]

[3] = Drug shielding on Nylon 12 film, PTX release in porcine whole blood
Procedure: as §1

SMILES: CC(=O)O[C@H]1C(=O)[C@@]2(C)[C@H]([C@H](OC(=O)c3ccccc3)[C@]3(O)C[C@H](OC(=O)[C@H](O)[C@@H](NC(=O)c4ccccc4)c4ccccc4)C(C)=C1C3(C)C)[C@]1(OC(C)=O)CO[C@@H]1C[C@@H]2O [PTX, paclitaxel]
- Percentage drug released in water [1]: 11%
- 10 minute PTX release in PBS [2]: 651 ng/mL
- 10 minute PTX release in blood [3]: 75.6%
